Earlier results, collected in patent publication US20220117866A1, “ANHYDROUS ALCOHOL-FREE SILKY FRAGRANCE FORMULATION” (AKI, Inc., priority 2020, published 2022).
Structures can show the parent of a compound that is named as a salt.

System: laboratory animals
Conditions: oral, dermal and inhalation routes

SMILES: CCOC(=O)CC(O)(CC(=O)OCC)C(=O)OCC [Triethyl Citrate, Triethyl 2-hydroxypropane-1,2,3-tricarboxylate]
- acute toxicity: low
